Assay results published in patent US20200068890A1 (Person to Whom the Inventor is Obligated to Assign, priority 2017, published 2020).
“And” between values parts separate entries of the source, which are not always exact repeats. Equal values may be shown once. Read-outs that look alike come from different tables or passages of the source.

Key:
[1] = tested on: Pseudomonas aeruginosa 13437; assay: Broth microdilution MIC; format: cell-based
Procedure: (§1) Assays were carried out by a broth microdilution method using a 96-well plate according to guidelines defined by the European Committee on Antimicrobial Susceptibility Testing as described here. Overnight cultures of strains were grown in tryptic soy broth (TSB) at 37° C. The overnight cultures were diluted to a concentration of 1×10^6 bacteria/ml (OD600=0.01) in TSB media. To each well on 96 well plates, 100 μl of bacterially infected media at a concentration of 1×10^6/ml and compounds at various concentrations were added. An uninfected control (i.e. no bacteria) was also included. The plates were incubated at 37° C. wrapped in parafilm for 20 hrs. The growth was assessed by measuring the absorbance at 600 nm. The minimum inhibitory concentration (MIC) was determined to be the lowest concentration of compound that inhibits visible bacterial growth.

EMRSA-16 = assay: Broth microdilution MIC; format: cell-based
Procedure: as §1

[2] = tested on: Enterococcus faecium 12204; assay: Broth microdilution MIC; format: cell-based
Procedure: as §1

[3] = tested on: Enterococcus faecalis 12201; assay: Broth microdilution MIC; format: cell-based
Procedure: as §1

EMRSA-15 = assay: Broth microdilution MIC; format: cell-based
Procedure: as §1

Klebsiella pneumoniae M6 = assay: Broth microdilution MIC; format: cell-based
Procedure: as §1

[4] = tested on: Escherichia coli NCTC12923; assay: Broth microdilution MIC; format: cell-based
Procedure: as §1

[5] = tested on: Acinetobacter baumannii AYE; assay: Broth microdilution MIC; format: cell-based
Procedure: as §1

[6] = tested on: Enterococcus faecalis 775; assay: Broth microdilution MIC; format: cell-based
Procedure: as §1

[7] = tested on: Klebsiella pneumoniae 13368; assay: Broth microdilution MIC; format: cell-based
Procedure: as §1

[8] = tested on: Acinetobacter baumannii 17978; assay: Broth microdilution MIC; format: cell-based
Procedure: as §1

[9] = tested on: Pseudomonas aeruginosa PA01; assay: Broth microdilution MIC; format: cell-based
Procedure: as §1

MSSA 9144 = assay: Broth microdilution MIC; format: cell-based; settings: Staphylococcus aureus
Procedure: as §1

A. thaliana seedlings = assay: In planta seedling development and root length on GM/MS media; format: in vivo; settings: for Normalised root / Root Length: individual plants 1-20
Procedure: Gamborg modified/Murashige Skoog (GM/MS) media and soil were prepared as according to Table 6.
A. thaliana seeds were sterilised including a 15 min wash step in 10% (v/v) commercial bleach without the addition of detergents. All plants were grown in a controlled environment room (CER) at 22±5° C. with 16 hrs: 8 hrs light: dark, 50-60% humidity under cool-white fluorescent light. Plants grown on soil were regularly watered and relocated within the CER.
Basta was employed as a positive control at a final recommended concentration of 10 μg/mL (50 μM). Negative controls included 0% (v/v) DMSO (H2O) and 1% (v/v) DMSO (vehicle). Media was poured into 100 mL plates and allowed to set before adding 20 sterilised seeds per plate. Seeds were then stratified at 4° C. for 72 hrs in a dark room prior to relocation into a CER.
The resulting growth plates were monitored daily and allowed to grow in an upright position for up to 14 days post stratification to determine the average root length using ImageJ analysis. Experiments were carried out in triplicates. Results were statistically validated using t-tests employing GraphPad Prism.

COc1ccccc1/C=C1\SC(=O)N(CC(=O)O)C1=O [Compound 3, (Z)-2-(5-(2-Methoxybenzylidene)-2,4-dioxothiazolidin-3-yl)acetic Acid]
MIC ([1]; Pseudomonas aeruginosa 13437, replicate 1, read-out: MIC #1): > 64 µg/mL | MIC ([1]; Pseudomonas aeruginosa 13437, replicate 2, read-out: MIC #2): > 64 µg/mL | MIC ([1]; Pseudomonas aeruginosa 13437, replicate 3, read-out: MIC #3): > 64 µg/mL | MIC (EMRSA-16; EMRSA-16, replicate 1, read-out: MIC #1): > 64 µg/mL | MIC (EMRSA-16; EMRSA-16, replicate 2, read-out: MIC #2): > 64 µg/mL | MIC (EMRSA-16; EMRSA-16, replicate 3, read-out: MIC #3): > 64 µg/mL | MIC ([2]; Enterococcus faecium 12204, replicate 1, read-out: MIC #1): > 64 µg/mL | MIC ([2]; Enterococcus faecium 12204, replicate 2, read-out: MIC #2): > 64 µg/mL | MIC ([2]; Enterococcus faecium 12204, replicate 3, read-out: MIC #3): > 64 µg/mL | MIC ([3]; Enterococcus faecalis 12201, replicate 1, read-out: MIC #1): > 64 µg/mL | MIC ([3]; Enterococcus faecalis 12201, replicate 2, read-out: MIC #2): > 64 µg/mL | MIC ([3]; Enterococcus faecalis 12201, replicate 3, read-out: MIC #3): > 64 µg/mL | MIC (EMRSA-15; EMRSA-15, replicate 1, read-out: MIC #1): > 64 µg/mL | MIC (EMRSA-15; EMRSA-15, replicate 2, read-out: MIC #2): > 64 µg/mL | MIC (EMRSA-15; EMRSA-15, replicate 3, read-out: MIC #3): > 64 µg/mL | MIC (Klebsiella pneumoniae M6; Klebsiella pneumoniae M6, replicate 1, read-out: MIC #1): > 64 µg/mL | MIC (Klebsiella pneumoniae M6; Klebsiella pneumoniae M6, replicate 2, read-out: MIC #2): > 64 µg/mL | MIC (Klebsiella pneumoniae M6; Klebsiella pneumoniae M6, replicate 3, read-out: MIC #3): > 64 µg/mL | MIC ([4]; Escherichia coli NCTC12923, replicate 1, read-out: MIC #1): > 64 µg/mL | MIC ([4]; Escherichia coli NCTC12923, replicate 2, read-out: MIC #2): > 64 µg/mL | MIC ([4]; Escherichia coli NCTC12923, replicate 3, read-out: MIC #3): > 64 µg/mL | MIC ([5]; replicate 1, read-out: MIC #1): > 64 µg/mL | MIC ([5]; replicate 2, read-out: MIC #2): > 64 µg/mL | MIC ([5]; replicate 3, read-out: MIC #3): > 64 µg/mL | MIC ([6]; Enterococcus faecalis 775, replicate 1, read-out: MIC #1): > 64 µg/mL | MIC ([6]; Enterococcus faecalis 775, replicate 2, read-out: MIC #2): > 64 µg/mL | MIC ([6]; Enterococcus faecalis 775, replicate 3, read-out: MIC #3): > 64 µg/mL | MIC ([7]; Klebsiella pneumoniae 13368, replicate 1, read-out: MIC #1): > 64 µg/mL | MIC ([7]; Klebsiella pneumoniae 13368, replicate 2, read-out: MIC #2): > 64 µg/mL | MIC ([7]; Klebsiella pneumoniae 13368, replicate 3, read-out: MIC #3): > 64 µg/mL | MIC ([8]; Acinetobacter baumannii 17978, replicate 1, read-out: MIC #1): > 64 µg/mL | MIC ([8]; Acinetobacter baumannii 17978, replicate 2, read-out: MIC #2): > 64 µg/mL | MIC ([8]; Acinetobacter baumannii 17978, replicate 3, read-out: MIC #3): > 64 µg/mL | MIC ([9]; Pseudomonas aeruginosa PA01, replicate 1, read-out: MIC #1): > 64 µg/mL | MIC ([9]; Pseudomonas aeruginosa PA01, replicate 2, read-out: MIC #2): > 64 µg/mL | MIC ([9]; Pseudomonas aeruginosa PA01, replicate 3, read-out: MIC #3): > 64 µg/mL | MIC (MSSA 9144; MSSA 9144, replicate 1, read-out: MIC #1): > 64 µg/mL | MIC (MSSA 9144; MSSA 9144, replicate 2, read-out: MIC #2): > 64 µg/mL | MIC (MSSA 9144; MSSA 9144, replicate 3, read-out: MIC #3): > 64 µg/mL | Normalised root (A. thaliana seedlings; 15.6 μM in GM/MS media): 126.8 and 79.33 and 8.429 and 111.7 and 109.2 and 119.2 and 125.6 and 130.3 and 102.2 and 104.4 and 74.72 and 87.31 and 77.74 and 72.45 and 127.9 and 91.64 and 101.7 and 3.856 and 113.4 and 59.09 | Root Length (A. thaliana seedlings; 15.6 μM in GM/MS media): 4.242 cm and 2.654 cm and 0.282 cm and 3.737 cm and 3.653 cm and 3.988 cm and 4.202 cm and 4.361 cm and 3.42 cm and 3.494 cm and 2.5 cm and 2.921 cm and 2.601 cm and 2.424 cm and 4.28 cm and 3.066 cm and 3.403 cm and 0.129 cm and 3.794 cm and 1.977 cm | Normalised root (A. thaliana seedlings; 31.3 μM in GM/MS media): 70.03 and 65.16 and 32.16 and 67.4 and 20.77 and 47.64 | Root Length (A. thaliana seedlings; 31.3 μM in GM/MS media): 2.343 cm and 2.18 cm and 1.076 cm and 2.255 cm and 0.695 cm and 1.594 cm | Normalised root (A. thaliana seedlings; 62.5 μM in GM/MS media): 64.32 and 82.41 and 69.91 and 82.88 and 64.47 and 34.82 and 79.21 and 80.49 and 78.28 and 63.37 and 57.96 and 45.82 and 15.99 and 51.14 and 20.03 and 32.64 | Root Length (A. thaliana seedlings; 62.5 μM in GM/MS media): 2.152 cm and 2.757 cm and 2.339 cm and 2.773 cm and 2.157 cm and 1.165 cm and 2.65 cm and 2.693 cm and 2.619 cm and 2.12 cm and 1.939 cm and 1.533 cm and 0.535 cm and 1.711 cm and 0.67 cm and 1.092 cm | Normalised root (A. thaliana seedlings; 125 μM in GM/MS media): 33.06 and 69.91 and 19.58 and 22.27 and 3.796 and 61.99 and 8.578 and 23.43 and 41.58 and 46.33 and 18.05 and 12.76 and 7.532 and 1.225 and 12.64 and 3.945 and 21.19 and 14.91 and 8.907 and 2.032 | Root Length (A. thaliana seedlings; 125 μM in GM/MS media): 1.106 cm and 2.339 cm and 0.655 cm and 0.745 cm and 0.127 cm and 2.074 cm and 0.287 cm and 0.784 cm and 1.391 cm and 1.55 cm and 0.604 cm and 0.427 cm and 0.252 cm and 0.041 cm and 0.423 cm and 0.132 cm and 0.709 cm and 0.499 cm and 0.298 cm and 0.068 cm | Normalised root (A. thaliana seedlings; 250 μM in GM/MS media): 18.35 and 35.03 and 19.34 and 7.741 and 3.318 and 12.7 and 3.049 and 7.532 and 27.32 and 17.58 and 13.9 and 3.916 and 9.923 and 8.07 and 5.619 and 3.497 and 4.513 and 2.66 and 3.378 and 3.676 | Root Length (A. thaliana seedlings; 250 μM in GM/MS media): 0.614 cm and 1.172 cm and 0.647 cm and 0.259 cm and 0.111 cm and 0.425 cm and 0.102 cm and 0.252 cm and 0.914 cm and 0.588 cm and 0.465 cm and 0.131 cm and 0.332 cm and 0.27 cm and 0.188 cm and 0.117 cm and 0.151 cm and 0.089 cm and 0.113 cm and 0.123 cm | Normalised root (A. thaliana seedlings; 500 μM in GM/MS media): 2.75 and 4.065 and 1.674 (2×) and 1.644 and 1.315 and 2.331 (2×) and 0.7472 and 2.272 and 2.062 and 1.076 and 1.435 and 2.63 and 2.092 and 1.584 and 5.021 and 1.375 | Root Length (A. thaliana seedlings; 500 μM in GM/MS media): 0.092 cm and 0.136 cm and 0.056 cm (2×) and 0.055 cm and 0.044 cm and 0.078 cm (2×) and 0.025 cm and 0.076 cm and 0.069 cm and 0.036 cm and 0.048 cm and 0.088 cm and 0.07 cm and 0.053 cm and 0.168 cm and 0.046 cm | seedling development (A. thaliana seedlings; concentrations 125 μM and higher): did not develop past the point of hypocotyl formation | development and growth of A. thaliana (leaves) (A. thaliana seedlings; highest concentrations tested): lack of any chlorophyll containing leaves
